Experimental data: patent US20080200492A1, “METHODS FOR THE TREATMENT OF ALCOHOL ABUSE, ADDICTION AND DEPENDENCY” (priority 2006, published 2008)

What was measured:
[1] = system: alcohol preferring rats; assay: Alcohol Preferring Rats, Study B: Post-Deprivation Effect; type: in vivo, rat; conditions: for % EtOH / Alcohol: 45 min before re-exposure to alcohol after 72 hours deprivation
Protocol: (§1) Adult male selectively-bred alcohol preferring rats were used in this study. The selectively bred alcohol preferring rats are widely used to study the suppressant effects of compounds on voluntary alcohol intake (Faren et al. 2000; Rezvani et al, 1990, 1991, 1992a, 1992b, 1999, 2000, 2002; 2003; Murphy et al, 1988; Overstreet et al., 1992, 1999; Li and McBride, 1995).
(§2) The rats were housed individually under a constant room temperature of 22±1° C. and 12:12 light-dark cycle (7:00-19:00, dark). Animals were fed Agway Prolab Rat/Mouse/Hamster 3000 formula and water ad libitum.
(§3) Alcohol intake was determined using a standard two-bottle choice method (Murphy et al. 1988; McBride et al. 1990; Rezvani et al. 1990, 1991, 1993, 1995, 1997, Rezvani et al., 2007a,b; Rezvani and Grady, 1994). Animals were first given free access to water in a graduated Richter tube for 1 day. Next, they were given access to only a solution of 10% (v/v) ethanol for 3 consecutive days. During this period the animals became accustomed to drinking from Richter tubes and to the taste and pharmacological effects of alcohol. Thereafter, the animals were given free access to both water and a solution of 10% alcohol for 4 consecutive weeks and throughout of the study. The animals continued to have free access to food. Water and alcohol intake were recorded at 6 and 24 hour.
Following Study A, the rats were maintained on alcohol for 15 days without drug. On day 16 post-gavage, rats were put on food and water only for 72 hours. On the next day, 45 min before re-exposure to alcohol, the rats were treated with vehicle (0.5% methylcellulose), naltrexone (at 20 mg/kg) or compound of formula (I-A) (at 30-mg/kg). Alcohol intake was then measured at 1, 3, 6 and 24 hr after exposure.
(§4) The results are presented as a means. Alcohol intake (g/kg) was calculated by multiplying the volume of alcohol consumed in ml by 10% and 0.7893 (ethanol density)/body weight in kg. Alcohol preference, expressed as percentage was calculated as (volume of alcohol consumed in ml/total fluid intake in ml)×100 (Rezvani and Grady, 1994; Rezvani et al., 2007a). Statistical differences between drug-treated and control groups was determined by using ANOVA and Tukey Student's t test for multiple comparison.
The results from Study B provide a measure of the effectiveness of the test compound to suppress post-deprivation-induced craving for alcohol.

[2] = system: alcohol preferring rats; assay: Alcohol Preferring Rats, Study A: Chronic Administration (14 days); type: in vivo, rat
Protocol: as §1, §2, §3
After establishment of a reliable baseline for alcohol, and water intake, the animals were randomly assigned to a treatment regimen. The animals were administered once a day, via gavage, either vehicle (0.5% methylcellulose) or compound of formula (I-A) (at 30 mg/kg) or naltrexone (at 20 mg/kg) for 14 consecutive days. A group of 6-7 animals was used for each treatment. Alcohol and water intake was recorded at 6 hrs and 24 hrs after administration.
as §4, with “means ±SEM.” for “means.”
The results from Study A provide a measure of whether or not the animals develop tolerance to the suppressant effects of the test compound following a chronic treatment. In Tables 5-8 below, the abbreviation “(I-A)” stands for the compound of formula (I-A), the abbreviation “Naltx” stands for naltrexone, and the abbreviation “EtOH” stands for ethanol.

[3] = 30 mg/kg once a day, gavage, Day 1, 6 Hour Intake
[4] = 30 mg/kg once a day, gavage, Day 1, 24 Hour Intake
[5] = 30 mg/kg once a day, gavage, Day 2, 6 Hour Intake
[6] = 30 mg/kg once a day, gavage, Day 2, 24 Hour Intake
[7] = 30 mg/kg once a day, gavage, Day 3, 6 Hour Intake
[8] = 30 mg/kg once a day, gavage, Day 3, 24 Hour Intake
[9] = 30 mg/kg once a day, gavage, Day 4, 6 Hour Intake
[10] = 30 mg/kg once a day, gavage, Day 4, 24 Hour Intake
[11] = 30 mg/kg once a day, gavage, Day 5, 6 Hour Intake
[12] = 30 mg/kg once a day, gavage, Day 5, 24 Hour Intake
[13] = 30 mg/kg once a day, gavage, Day 6, 6 Hour Intake
[14] = 30 mg/kg once a day, gavage, Day 6, 24 Hour Intake
[15] = 30 mg/kg once a day, gavage, Day 7, 6 Hour Intake
[16] = 30 mg/kg once a day, gavage, Day 7, 24 Hour Intake
[17] = 30 mg/kg once a day, gavage, Day 8, 6 Hour Intake
[18] = 30 mg/kg once a day, gavage, Day 8, 24 Hour Intake
[19] = 30 mg/kg once a day, gavage, Day 9, 6 Hour Intake
[20] = 30 mg/kg once a day, gavage, Day 9, 24 Hour Intake
[21] = 30 mg/kg once a day, gavage, Day 10, 6 Hour Intake
[22] = 30 mg/kg once a day, gavage, Day 10, 24 Hour Intake
[23] = 30 mg/kg once a day, gavage, Day 11, 6 Hour Intake
[24] = 30 mg/kg once a day, gavage, Day 11, 24 Hour Intake
[25] = 30 mg/kg once a day, gavage, Day 12, 6 Hour Intake
[26] = 30 mg/kg once a day, gavage, Day 12, 24 Hour Intake
[27] = 30 mg/kg once a day, gavage, Day 13, 6 Hour Intake
[28] = 30 mg/kg once a day, gavage, Day 13, 24 Hour Intake
[29] = 30 mg/kg once a day, gavage, Day 14, 6 Hour Intake
[30] = 30 mg/kg once a day, gavage, Day 14, 24 Hour Intake

SMILES: O=C1CC[C@@]2(O)[C@H]3Cc4ccc(O)c5c4[C@@]2(CCN3CC2CC2)[C@H]1O5 [Naltrexone, naltrexone, reference compound]
- % EtOH ([1]; 20 mg/kg, 1 Hour Post Dosing): 95%
- Alcohol ([1]; 20 mg/kg, 1 Hour Post Dosing): 0.48 g/kg
- % EtOH ([1]; 20 mg/kg, 3 Hours Post Dosing): 94%
- Alcohol ([1]; 20 mg/kg, 3 Hours Post Dosing): 1.15 g/kg
- % EtOH ([1]; 20 mg/kg, 6 Hours Post Dosing): 87%
- Alcohol ([1]; 20 mg/kg, 6 Hours Post Dosing): 2.35 g/kg
- % EtOH ([1]; 20 mg/kg, 24 Hours Post Dosing): 87%
- Alcohol ([1]; 20 mg/kg, 24 Hours Post Dosing): 6.47 g/kg
- Alcohol Preference ([2]; 20 mg/kg once a day, gavage, Day 1, 6 Hour Intake): 64 % EtOH
- Alcohol Preference ([2]; 20 mg/kg once a day, gavage, Day 1, 24 Hour Intake): 65 % EtOH
- Alcohol Preference ([2]; 20 mg/kg once a day, gavage, Day 2, 6 Hour Intake): 67 % EtOH
- Alcohol Preference ([2]; 20 mg/kg once a day, gavage, Day 2, 24 Hour Intake): 68 % EtOH
- Alcohol Preference ([2]; 20 mg/kg once a day, gavage, Day 3, 6 Hour Intake): 70 % EtOH
- Alcohol Preference ([2]; 20 mg/kg once a day, gavage, Day 3, 24 Hour Intake): 68 % EtOH
- Alcohol Preference ([2]; 20 mg/kg once a day, gavage, Day 4, 6 Hour Intake): 80 % EtOH
- Alcohol Preference ([2]; 20 mg/kg once a day, gavage, Day 4, 24 Hour Intake): 77 % EtOH
- Alcohol Preference ([2]; 20 mg/kg once a day, gavage, Day 5, 6 Hour Intake): 81 % EtOH
- Alcohol Preference ([2]; 20 mg/kg once a day, gavage, Day 5, 24 Hour Intake): 79 % EtOH
- Alcohol Preference ([2]; 20 mg/kg once a day, gavage, Day 6, 6 Hour Intake): 86 % EtOH
- Alcohol Preference ([2]; 20 mg/kg once a day, gavage, Day 6, 24 Hour Intake): 72 % EtOH
- Alcohol Preference ([2]; 20 mg/kg once a day, gavage, Day 7, 6 Hour Intake): 88 % EtOH
- Alcohol Preference ([2]; 20 mg/kg once a day, gavage, Day 7, 24 Hour Intake): 84 % EtOH
- Alcohol Preference ([2]; 20 mg/kg once a day, gavage, Day 8, 6 Hour Intake): 88 % EtOH
- Alcohol Preference ([2]; 20 mg/kg once a day, gavage, Day 8, 24 Hour Intake): 85 % EtOH
- Alcohol Preference ([2]; 20 mg/kg once a day, gavage, Day 9, 6 Hour Intake): 89 % EtOH
- Alcohol Preference ([2]; 20 mg/kg once a day, gavage, Day 9, 24 Hour Intake): 89 % EtOH
- Alcohol Preference ([2]; 20 mg/kg once a day, gavage, Day 10, 6 Hour Intake): 91 % EtOH
- Alcohol Preference ([2]; 20 mg/kg once a day, gavage, Day 10, 24 Hour Intake): 85 % EtOH
- Alcohol Preference ([2]; 20 mg/kg once a day, gavage, Day 11, 6 Hour Intake): 99 % EtOH
- Alcohol Preference ([2]; 20 mg/kg once a day, gavage, Day 11, 24 Hour Intake): 99 % EtOH
- Alcohol Preference ([2]; 20 mg/kg once a day, gavage, Day 12, 6 Hour Intake): 95 % EtOH
- Alcohol Preference ([2]; 20 mg/kg once a day, gavage, Day 12, 24 Hour Intake): 97 % EtOH
- Alcohol Preference ([2]; 20 mg/kg once a day, gavage, Day 13, 6 Hour Intake): 90 % EtOH
- Alcohol Preference ([2]; 20 mg/kg once a day, gavage, Day 13, 24 Hour Intake): 95 % EtOH
- Alcohol Preference ([2]; 20 mg/kg once a day, gavage, Day 14, 6 Hour Intake): 92 % EtOH
- Alcohol Preference ([2]; 20 mg/kg once a day, gavage, Day 14, 24 Hour Intake): 89 % EtOH

SMILES: Cc1cccc2cccc(CN3CCC4(CC3)C(=O)N(C[C@H](O)CN)CN4c3ccc(F)cc3)c12 [Cmpd (I-A), 3-(3-amino-2-(R)-hydroxy-propyl)-1-(4-fluoro-phenyl)-8-(8-methyl-naphthalen-1-ylmethyl)-1,3,8-triazaspiro[4.5]decan-4-one]
- % EtOH ([1]; 30 mg/kg, 1 Hour Post Dosing): 84%
- Alcohol ([1]; 30 mg/kg, 1 Hour Post Dosing): 0.39 g/kg
- % EtOH ([1]; 30 mg/kg, 3 Hours Post Dosing): 75%
- Alcohol ([1]; 30 mg/kg, 3 Hours Post Dosing): 0.72 g/kg
- % EtOH ([1]; 30 mg/kg, 6 Hours Post Dosing): 72%
- Alcohol ([1]; 30 mg/kg, 6 Hours Post Dosing): 1.48 g/kg
- % EtOH ([1]; 30 mg/kg, 24 Hours Post Dosing): 73%
- Alcohol ([1]; 30 mg/kg, 24 Hours Post Dosing): 3.72 g/kg
- Alcohol intake and preference, post-deprivation ([1]; 30 mg/kg, at 1, 3, 6 and 24 hours post dosing): showed a decrease in alcohol intake and preference
- Alcohol Intake [2, 3]: 1.31 g/kg
- Alcohol Preference [2, 3]: 62 % EtOH
- Alcohol Intake [2, 4]: 4.04 g/kg
- Alcohol Preference [2, 4]: 72 % EtOH
- Alcohol Intake [2, 5]: 1.54 g/kg
- Alcohol Preference [2, 5]: 48 % EtOH
- Alcohol Intake [2, 6]: 3.71 g/kg
- Alcohol Preference [2, 6]: 56 % EtOH
- Alcohol Intake [2, 7]: 1.71 g/kg
- Alcohol Preference [2, 7]: 53 % EtOH
- Alcohol Intake [2, 8]: 3.39 g/kg
- Alcohol Preference [2, 8]: 54 % EtOH
- Alcohol Intake [2, 9]: 1.24 g/kg
- Alcohol Preference [2, 9]: 52 % EtOH
- Alcohol Intake [2, 10]: 2.68 g/kg
- Alcohol Preference [2, 10]: 50 % EtOH
- Alcohol Intake [2, 11]: 1.54 g/kg
- Alcohol Preference [2, 11]: 39 % EtOH
- Alcohol Intake [2, 12]: 2.97 g/kg
- Alcohol Preference [2, 12]: 47 % EtOH
- Alcohol Intake [2, 13]: 1.04 g/kg
- Alcohol Preference [2, 13]: 60 % EtOH
- Alcohol Intake [2, 14]: 2.99 g/kg
- Alcohol Preference [2, 14]: 59 % EtOH
- Alcohol Intake [2, 15]: 1.34 g/kg
- Alcohol Preference [2, 15]: 65 % EtOH
- Alcohol Intake [2, 16]: 3.60 g/kg
- Alcohol Preference [2, 16]: 76 % EtOH
- Alcohol Intake [2, 17]: 1.63 g/kg
- Alcohol Preference [2, 17]: 61 % EtOH
- Alcohol Intake [2, 18]: 3.97 g/kg
- Alcohol Preference [2, 18]: 70 % EtOH
- Alcohol Intake [2, 19]: 1.84 g/kg
- Alcohol Preference [2, 19]: 67 % EtOH
- Alcohol Intake [2, 20]: 3.78 g/kg
- Alcohol Preference [2, 20]: 68 % EtOH
- Alcohol Intake [2, 21]: 1.38 g/kg
- Alcohol Preference [2, 21]: 72 % EtOH
- Alcohol Intake [2, 22]: 3.00 g/kg
- Alcohol Preference [2, 22]: 73 % EtOH
- Alcohol Intake [2, 23]: 1.17 g/kg
- Alcohol Preference [2, 23]: 67 % EtOH
- Alcohol Intake [2, 24]: 2.86 g/kg
- Alcohol Preference [2, 24]: 81 % EtOH
- Alcohol Intake [2, 25]: 1.07 g/kg
- Alcohol Preference [2, 25]: 51 % EtOH
- Alcohol Intake [2, 26]: 3.03 g/kg
- Alcohol Preference [2, 26]: 69 % EtOH
- Alcohol Intake [2, 27]: 0.96 g/kg
- Alcohol Preference [2, 27]: 45 % EtOH
- Alcohol Intake [2, 28]: 2.67 g/kg
- Alcohol Preference [2, 28]: 67 % EtOH
- Alcohol Intake [2, 29]: 0.55 g/kg
- Alcohol Preference [2, 29]: 28 % EtOH
- Alcohol Intake [2, 30]: 1.91 g/kg
- Alcohol Preference [2, 30]: 45 % EtOH
- Alcohol Intake ([2]; 30 mg/kg once a day, at 6 and 24 hours, over the course of 14 days): showed a decrease in alcohol intake
- Tolerance to the alcohol reducing effects ([2]; 30 mg/kg once a day, over the 14 days of administration): did not develop tolerance
